This note sets out measurements from patent publication USRE39197E1, “Cell adhesion-inhibiting antiinflammatory and immune-suppressive compounds” (Abbott Laboratories, priority 1998, dated 2006).

As a reminder, the IC50 is the concentration at which inhibition is half-maximal. Low readings indicate higher potency, high ones lower potency. As a reminder, the inhibition is the relative decrease from the control value, in per cent.

For assay [1], the target named is T1, interaction between the integrin LFA-1 and its adhesion partner ICAM-1 (Homo sapiens, UniProt P20701).
T1 construct: Recombinant LFA-1 (100 μL of 0.7 μg/ml mL, ICOS Corporation) in D-PBS; purchased ICOS Corporation
T1 sequence (P20701 26-1170): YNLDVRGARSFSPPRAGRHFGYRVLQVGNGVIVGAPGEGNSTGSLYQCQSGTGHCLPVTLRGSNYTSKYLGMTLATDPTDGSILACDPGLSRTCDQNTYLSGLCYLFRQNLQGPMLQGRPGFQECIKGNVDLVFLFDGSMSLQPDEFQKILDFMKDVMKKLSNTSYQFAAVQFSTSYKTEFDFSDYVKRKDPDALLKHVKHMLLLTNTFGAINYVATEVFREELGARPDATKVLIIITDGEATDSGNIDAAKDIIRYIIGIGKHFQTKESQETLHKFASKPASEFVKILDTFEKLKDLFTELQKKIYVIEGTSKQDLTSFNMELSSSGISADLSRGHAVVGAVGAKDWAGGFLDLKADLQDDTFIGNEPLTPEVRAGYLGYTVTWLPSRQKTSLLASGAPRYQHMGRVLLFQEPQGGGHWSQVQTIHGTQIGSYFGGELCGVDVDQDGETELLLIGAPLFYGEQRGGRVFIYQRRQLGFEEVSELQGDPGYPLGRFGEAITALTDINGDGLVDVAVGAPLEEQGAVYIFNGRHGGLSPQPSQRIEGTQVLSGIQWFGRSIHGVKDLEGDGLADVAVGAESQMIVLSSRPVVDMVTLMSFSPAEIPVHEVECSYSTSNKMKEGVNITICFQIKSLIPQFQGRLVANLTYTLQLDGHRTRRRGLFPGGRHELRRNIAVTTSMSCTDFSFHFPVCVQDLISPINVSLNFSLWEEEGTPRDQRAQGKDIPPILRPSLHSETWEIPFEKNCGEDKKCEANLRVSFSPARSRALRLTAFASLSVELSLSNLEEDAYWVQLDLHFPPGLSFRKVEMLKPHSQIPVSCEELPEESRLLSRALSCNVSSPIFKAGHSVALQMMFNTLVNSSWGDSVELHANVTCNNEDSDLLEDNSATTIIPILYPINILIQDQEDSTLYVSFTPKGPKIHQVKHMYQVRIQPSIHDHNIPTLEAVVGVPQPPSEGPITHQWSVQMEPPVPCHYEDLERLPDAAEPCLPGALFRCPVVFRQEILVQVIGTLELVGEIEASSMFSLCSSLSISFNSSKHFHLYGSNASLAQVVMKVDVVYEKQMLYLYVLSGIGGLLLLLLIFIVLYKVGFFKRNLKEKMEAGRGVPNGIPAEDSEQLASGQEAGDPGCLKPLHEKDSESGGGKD
T1 sequence (P05107 23-769 partner): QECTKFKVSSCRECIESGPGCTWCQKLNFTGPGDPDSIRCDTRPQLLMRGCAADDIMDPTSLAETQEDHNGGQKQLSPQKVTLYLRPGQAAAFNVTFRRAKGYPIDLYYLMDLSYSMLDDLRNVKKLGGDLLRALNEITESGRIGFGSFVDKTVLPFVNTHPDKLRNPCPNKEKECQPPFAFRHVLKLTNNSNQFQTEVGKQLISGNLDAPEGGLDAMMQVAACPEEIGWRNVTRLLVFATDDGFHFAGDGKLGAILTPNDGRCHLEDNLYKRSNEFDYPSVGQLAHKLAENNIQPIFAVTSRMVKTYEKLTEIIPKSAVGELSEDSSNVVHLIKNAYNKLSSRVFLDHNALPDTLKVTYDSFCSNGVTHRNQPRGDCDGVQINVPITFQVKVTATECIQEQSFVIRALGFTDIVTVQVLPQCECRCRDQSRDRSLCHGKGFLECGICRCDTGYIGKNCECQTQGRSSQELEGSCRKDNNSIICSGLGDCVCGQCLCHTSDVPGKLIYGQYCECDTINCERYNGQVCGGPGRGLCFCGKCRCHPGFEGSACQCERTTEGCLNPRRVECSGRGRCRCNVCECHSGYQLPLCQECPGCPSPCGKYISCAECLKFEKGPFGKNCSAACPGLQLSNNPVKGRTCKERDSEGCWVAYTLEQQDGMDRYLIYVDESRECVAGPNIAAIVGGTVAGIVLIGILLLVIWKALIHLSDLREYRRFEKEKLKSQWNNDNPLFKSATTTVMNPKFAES
Put plainly: ICAM-1/LFA-1 Biochemical Interaction Assay. The assay is classed as binding. The following applies: 4 μM compound; recombinant LFA-1, biotinylated ICAM-1/Ig. In a few lines:
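Plates coated with anti-LFA-1 antibody capture recombinant LFA-1; compound dilutions in D-PBS with 2 mM MgCl2 and 1% fish gelatin, then 0.8 μg/mL biotinylated ICAM-1/Ig added, 1 h RT. Bound ICAM-1 detected by Eu-streptavidin time-resolved fluorescence; % inhibition background-corrected against uncoated wells.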

Assay [2] has as its system adherence of JY-8 cells (expressing LFA-1) to immobilized ICAM-1. Put plainly: ICAM-1/JY-8 Cell Adhesion Assay. The assay is classed as cell-based, human.
Assay [3] relates to adhesion of JY-8 cells (expressing LFA-1) to immobilized ICAM-3. Nature of the assay: ICAM-3/JY-8 Cell Adhesion Assay. The class given is cell-based, human. The conditions noted are these: 0.6 μM compound, JY-8 cells on immobilized ICAM-3/Ig; for inhibition at 0.6 µM: Homo sapiens. As for the experimental part: As such, it is expected that these compounds should block the interaction of LFA-1 with other CAM's. […] Compounds of the present invention may be evaluated for their ability to block the adhesion of JY-8 cells (a human EBV-transformed B cell line expressing LFA-1 on its surface) to immobilized ICAM-3, as follows:
ICAM-3/JY-8 Cell Adhesion Assay
For measurement of inhibitory activity in the cell-based adhesion assay, 96-well microtiter plates are were coated with 50 μL of recombinant ICAM-3/Ig (ICOS Corporation) at a concentration of 10 μg/mL in D-PBS w/o without Ca^++ or Mg^++ overnight at 4° C. The wells are were then washed twice with D-PBS, blocked by addition of 100 μL of D-PBS, 1% bovine serum albumin (BSA) by incubation for 1 hour at room temperature, and washed once with RPMI-1640/5% heat-inactivated fetal bovine serum (adhesion buffer). Dilutions of compounds to be assayed for ICAM-3/LFA-1 antagonistic activity are were prepared in adhesion buffer from 10 mM stock solutions in DMSO and 100 μL are were added to duplicate wells. JY-8 cells (a human EBV-transformed B cell line expressing LFA-1 on its surface; 100 μL at 0.75×10^6 cells/ml mL in adhesion buffer) are were then added to the wells. Microtiter plates are were incubated for 30 minutes at room temperature; the adherent cells are were then fixed with 50 μL of 14% glutaraldehyde/D-PBS and were incubated for an additional 90 minutes. The wells are were washed gently with dH2O; 50 μL of dH2O is was added, following followed by 50 μL of 1% crystal violet. After 5 minutes the plates are were washed 3× times with dH2O; 75 μL of dH2O and 225 μL of 95% EtOH are were added to each well to extract the crystal violet from the cells. Absorbance is was measured at […] in an ELISA plate reader. The percent inhibition of a candidate compound is was calculated using the following equation. [formula]

Where [4] appears, read: JY-8 cells on immobilized ICAM-1/Ig.
[5] abbreviates: Homo sapiens, JY-8, JY-8 cells on immobilized ICAM-1/Ig.

For the compound `O=C(/C=C/c1ccc(Sc2ccccc2Br)c(Cl)c1)N1CCCCC1CO` (stereo not drawn) [Example 16, (2-(Bromophenyl)[2-chloro-4-(E-((2-hydroxymethyl)piperidin-1-yl)carbonyl)ethenyl)phenyl]sulfide], the “% inhibition @ 4 μM” value in assay [1] amounted to 86%. Further, the IC50 in assay [2] (setting [4]) came to 300 nM. Further, in assay [3], the “% inhibition @ 0.6 μM” value was 100%.

In the case of `CC(=O)N1CCN(C(=O)/C=C/c2ccc(Sc3ccccc3Cl)c([N+](=O)[O-])c2)CC1` [Example 46, (2-Chlorophenyl)[2-nitro-4-(E-((4-acetylpiperazin-1-yl)carbonyl)ethenyl)phenyl]sulfide], the inhibition at 4 µM in assay [1] was found to be 87%. Moreover, inhibition in assay [2] (setting [5]) was half-maximal at 60 nM (IC50). Also, the inhibition at 0.6 µM in assay [3] came out at 100%.

For the compound `Cc1ccccc1Sc1ccc(/C=C/C(=O)NCCCN2CCCC2=O)cc1C(F)(F)F` [Example 30, (2-Methylphenyl)[2-trifluoromethyl-4-(E-((3-(2-oxopyrrolidin-1-yl)propylamino)carbonyl)ethenyl)phenyl]sulfide], the inhibition at 4 µM in assay [1] amounted to 93%. It took 250 nM to reach half-maximal inhibition in assay [2] (setting [5]) (IC50). In assay [3], this compound registered an inhibition at 0.6 µM of 100%.

Regarding `CC(=O)NC1CCN(C(=O)/C=C/c2ccc(Sc3ccccc3Br)c(Cl)c2)C1` (stereo not drawn) [Example 17], the “% inhibition @ 4 μM” value in assay [1] is reported as 84%. In assay [2] (setting [4]), this compound came in with an IC50 of 5800 nM. Besides, in assay [3], the “% inhibition @ 0.6 μM” value turned out to be 100%.

For the compound `O=C(/C=C/c1ccc(Sc2ccccc2Br)c(Cl)c1)N1CCCC(CO)C1` (stereo not drawn) [Example 15, (2-(Bromophenl)[2-chloro-4-(E-((3-hydroxymethyl)piperidin-1-yl)carbonyl)ethenyl)phenyl]sulfide], the “% inhibition @ 4 μM” value in assay [1] is recorded as 88%. The IC50 in assay [2] (setting [4]) turned out to be 140 nM. In addition, the “% inhibition @ 0.6 μM” value in assay [3] was found to be 100%.

For the compound `CC(=O)N1CCN(C(=O)/C=C/c2ccc(Sc3cccc(Cl)c3Cl)c([N+](=O)[O-])c2)CC1` [Example 34, (2,3-Dichlorophenyl)[2-nitro-4-(E-((4-acetylpiperazin-1-yl)carbonyl)ethenyl)phenyl]sulfide], the inhibition at 4 µM in assay [1] came out at 91%. Moreover, in assay [2] (setting [5]), the IC50 is 70 nM. Also, the inhibition at 0.6 µM in assay [3] was found to be 100%.

Turning to `CC(=O)N1CCN(C(=O)/C=C/c2ccc(Sc3ccc(Cl)cc3Cl)c(Cl)c2)CC1` [Example 9, (2,4-Dichlorophenyl)[2-chloro-4-(E-((4-acetylpiperazin-1-yl)carbonyl)ethenyl)phenyl]sulfide], in assay [1], the inhibition at 4 µM came out at 93%. In addition, inhibition in assay [2] (setting [5]) was half-maximal at 130 nM (IC50). The compound further came in with an inhibition at 0.6 µM in assay [3] of 100%.
